Calls of active or inactive are those of the source.
Columns and labels:
[1] = biological target: Peroxisome proliferator-activated receptor gamma/Nuclear receptor coactivator 3 (Homo sapiens, UniProt P37231); assay: (§1) TR-FRET dose response biochemical High Throughput Screening assay for agonists of the steroid receptor coactivator 3 (SRC-3) recruitment by the peroxisome proliferator-activated receptor gamma (PPAR gamma): non-selective agonists. [Related pubchem assays: 1301 (Confirmation screen.), 1048 (Primary screen.)]; assay type: functional
[2] = biological target: Peroxisome proliferator-activated receptor gamma/Nuclear receptor coactivator 1 (Homo sapiens, UniProt P37231); assay: as §1, with “1 (SRC-1)” for “3 (SRC-3)”, “assays (depositor defined):AID1300, AID1808, AID504735, AID631]” for “assays: 1301 (Confirmation screen.), 1048 (Primary screen.)]”; assay type: protein assay
Peroxisome proliferator-activated receptor gamma/Nuclear receptor coactivator 1, sequence (P37231 whole entry): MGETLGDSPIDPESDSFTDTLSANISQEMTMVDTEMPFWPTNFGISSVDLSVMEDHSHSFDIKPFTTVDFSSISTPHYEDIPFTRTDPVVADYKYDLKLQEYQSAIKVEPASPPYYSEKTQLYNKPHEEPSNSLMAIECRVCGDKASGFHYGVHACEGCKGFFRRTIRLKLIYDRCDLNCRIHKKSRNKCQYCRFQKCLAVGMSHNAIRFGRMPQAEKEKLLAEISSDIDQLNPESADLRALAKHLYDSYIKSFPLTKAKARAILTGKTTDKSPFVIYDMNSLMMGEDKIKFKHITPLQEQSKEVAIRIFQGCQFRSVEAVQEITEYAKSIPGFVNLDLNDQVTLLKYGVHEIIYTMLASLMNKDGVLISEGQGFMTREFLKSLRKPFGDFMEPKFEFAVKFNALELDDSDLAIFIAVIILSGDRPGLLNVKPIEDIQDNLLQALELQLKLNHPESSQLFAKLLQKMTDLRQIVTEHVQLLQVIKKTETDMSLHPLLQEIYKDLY
Peroxisome proliferator-activated receptor gamma/Nuclear receptor coactivator 1, sequence (Q15788 whole entry, further chain): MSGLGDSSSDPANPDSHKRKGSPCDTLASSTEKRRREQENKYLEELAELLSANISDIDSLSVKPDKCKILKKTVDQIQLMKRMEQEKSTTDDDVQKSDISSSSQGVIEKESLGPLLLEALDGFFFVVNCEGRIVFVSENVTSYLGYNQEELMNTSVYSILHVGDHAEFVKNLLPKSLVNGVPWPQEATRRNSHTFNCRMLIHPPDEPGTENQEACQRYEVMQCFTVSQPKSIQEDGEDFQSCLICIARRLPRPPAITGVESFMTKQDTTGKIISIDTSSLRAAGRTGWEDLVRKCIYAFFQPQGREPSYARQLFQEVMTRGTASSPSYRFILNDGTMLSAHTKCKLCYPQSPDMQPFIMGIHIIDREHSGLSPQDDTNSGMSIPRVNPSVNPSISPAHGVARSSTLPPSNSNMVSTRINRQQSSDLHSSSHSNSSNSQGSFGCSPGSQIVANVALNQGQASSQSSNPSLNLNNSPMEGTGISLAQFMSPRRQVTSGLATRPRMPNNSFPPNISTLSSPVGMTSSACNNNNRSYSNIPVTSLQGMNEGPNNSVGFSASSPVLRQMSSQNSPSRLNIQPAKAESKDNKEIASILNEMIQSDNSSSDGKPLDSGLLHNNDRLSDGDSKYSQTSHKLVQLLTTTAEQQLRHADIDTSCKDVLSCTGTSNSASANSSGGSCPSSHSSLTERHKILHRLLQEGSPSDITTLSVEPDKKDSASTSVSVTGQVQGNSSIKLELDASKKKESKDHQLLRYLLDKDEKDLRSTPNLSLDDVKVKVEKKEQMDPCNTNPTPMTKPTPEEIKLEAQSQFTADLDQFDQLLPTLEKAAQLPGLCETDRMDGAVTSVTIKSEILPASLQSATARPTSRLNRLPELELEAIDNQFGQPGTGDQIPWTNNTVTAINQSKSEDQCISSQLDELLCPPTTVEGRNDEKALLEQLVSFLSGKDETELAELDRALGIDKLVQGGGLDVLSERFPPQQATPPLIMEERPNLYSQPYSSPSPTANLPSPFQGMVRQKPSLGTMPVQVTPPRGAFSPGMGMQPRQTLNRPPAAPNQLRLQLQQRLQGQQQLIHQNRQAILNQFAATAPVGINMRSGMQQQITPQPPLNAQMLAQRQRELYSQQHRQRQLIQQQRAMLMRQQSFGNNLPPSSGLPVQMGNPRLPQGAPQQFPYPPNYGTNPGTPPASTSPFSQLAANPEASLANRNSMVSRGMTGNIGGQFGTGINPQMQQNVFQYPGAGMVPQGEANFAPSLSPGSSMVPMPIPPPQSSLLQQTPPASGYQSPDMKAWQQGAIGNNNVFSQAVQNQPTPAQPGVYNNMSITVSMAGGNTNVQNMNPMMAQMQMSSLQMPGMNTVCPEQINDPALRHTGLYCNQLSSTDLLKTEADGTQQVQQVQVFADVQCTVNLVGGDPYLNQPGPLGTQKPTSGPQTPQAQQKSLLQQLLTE

[3] = biological target: Peroxisome proliferator-activated receptor gamma/Nuclear receptor coactivator 2 (Homo sapiens, UniProt P37231); assay: TR-FRET dose response biochemical High Throughput Screening assay for agonists of the steroid receptor coactivator 2 (SRC-2) recruitment by the peroxisome proliferator-activated receptor gamma (PPAR gamma): non-selective agonists. [Related pubchem assays: 1297, 1032 ]; assay type: functional
Peroxisome proliferator-activated receptor gamma/Nuclear receptor coactivator 2, sequence (P37231 whole entry): as the sequence (P37231 whole entry) above
Peroxisome proliferator-activated receptor gamma/Nuclear receptor coactivator 2, sequence (Q15596 whole entry, further chain): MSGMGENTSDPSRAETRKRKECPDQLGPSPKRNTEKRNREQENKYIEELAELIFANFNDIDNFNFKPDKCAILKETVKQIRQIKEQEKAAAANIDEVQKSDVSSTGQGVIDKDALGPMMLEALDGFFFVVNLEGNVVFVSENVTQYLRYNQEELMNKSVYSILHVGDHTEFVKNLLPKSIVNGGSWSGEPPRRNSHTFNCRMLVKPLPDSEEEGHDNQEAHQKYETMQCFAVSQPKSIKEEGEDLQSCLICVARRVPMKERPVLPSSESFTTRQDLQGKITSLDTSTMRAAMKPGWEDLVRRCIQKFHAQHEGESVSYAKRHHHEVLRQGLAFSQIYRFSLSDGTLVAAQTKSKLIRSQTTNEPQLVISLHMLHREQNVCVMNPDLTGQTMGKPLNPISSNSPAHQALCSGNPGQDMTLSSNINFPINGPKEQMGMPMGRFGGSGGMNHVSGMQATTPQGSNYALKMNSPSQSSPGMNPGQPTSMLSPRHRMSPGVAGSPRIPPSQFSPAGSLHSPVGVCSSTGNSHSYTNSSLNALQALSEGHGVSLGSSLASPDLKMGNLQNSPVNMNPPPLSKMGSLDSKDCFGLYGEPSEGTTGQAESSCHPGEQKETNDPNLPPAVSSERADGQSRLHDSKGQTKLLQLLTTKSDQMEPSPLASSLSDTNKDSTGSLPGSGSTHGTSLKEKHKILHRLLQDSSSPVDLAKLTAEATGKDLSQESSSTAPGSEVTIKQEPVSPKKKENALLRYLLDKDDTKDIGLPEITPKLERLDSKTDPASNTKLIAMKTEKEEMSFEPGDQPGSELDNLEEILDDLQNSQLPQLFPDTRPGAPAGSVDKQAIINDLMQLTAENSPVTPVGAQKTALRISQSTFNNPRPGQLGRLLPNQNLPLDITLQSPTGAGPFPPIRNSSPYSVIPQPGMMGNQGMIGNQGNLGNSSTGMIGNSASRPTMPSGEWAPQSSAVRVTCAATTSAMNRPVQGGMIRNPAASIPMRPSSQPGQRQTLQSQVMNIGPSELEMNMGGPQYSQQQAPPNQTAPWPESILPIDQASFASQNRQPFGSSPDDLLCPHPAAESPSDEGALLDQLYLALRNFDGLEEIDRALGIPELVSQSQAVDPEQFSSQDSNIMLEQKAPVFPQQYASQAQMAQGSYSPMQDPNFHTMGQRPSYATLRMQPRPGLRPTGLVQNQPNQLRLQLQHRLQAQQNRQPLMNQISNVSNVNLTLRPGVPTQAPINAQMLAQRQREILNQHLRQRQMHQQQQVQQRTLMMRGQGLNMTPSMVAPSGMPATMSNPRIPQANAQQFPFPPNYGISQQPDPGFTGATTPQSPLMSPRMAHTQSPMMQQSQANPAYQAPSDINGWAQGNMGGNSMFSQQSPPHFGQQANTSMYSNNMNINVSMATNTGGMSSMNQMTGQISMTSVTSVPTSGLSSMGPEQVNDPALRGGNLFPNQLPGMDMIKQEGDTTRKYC

[4] = HEK-293T cell viability reduction – luminescence, B-cell screen hits, cytotoxicity control for BCR NF-kB inhibitor project, dose response (AID 489021); assay type: functional, cell-based;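 further: HEK-293T cells carrying an NF-kB luciferase reporter; cells exposed to compound for about 14 hours before viability readout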
[5] = biological target: T1, Microphthalmia-associated transcription factor (Homo sapiens, UniProt O75030); assay: reducers of TRPM1 reporter luminescence, concentration series – cell-based, SK-MEL-5, cherry-picked, set 3, MITF inhibitor project, dose response (AID 493073); assay type: functional;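 further: SK-MEL-5 melanoma cells with luciferase driven by the MITF target TRPM1 promoter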
T1 sequence (O75030 whole entry): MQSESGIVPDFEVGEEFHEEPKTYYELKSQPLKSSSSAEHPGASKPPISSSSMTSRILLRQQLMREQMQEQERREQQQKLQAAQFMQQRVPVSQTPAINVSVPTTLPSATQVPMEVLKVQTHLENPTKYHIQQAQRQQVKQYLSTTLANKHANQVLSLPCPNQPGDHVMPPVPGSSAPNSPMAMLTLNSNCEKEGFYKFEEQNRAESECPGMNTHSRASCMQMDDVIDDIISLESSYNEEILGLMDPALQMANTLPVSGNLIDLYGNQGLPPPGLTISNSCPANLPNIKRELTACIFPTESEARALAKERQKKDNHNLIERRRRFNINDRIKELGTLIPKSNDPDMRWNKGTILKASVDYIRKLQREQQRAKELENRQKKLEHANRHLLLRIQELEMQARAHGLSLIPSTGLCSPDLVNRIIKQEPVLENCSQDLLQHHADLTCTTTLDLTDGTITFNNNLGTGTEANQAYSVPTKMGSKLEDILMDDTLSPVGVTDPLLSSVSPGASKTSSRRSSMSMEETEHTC

Vero = assay: cells; assay type: functional; details: Chlorocebus sabaeus
[6] = Luminescence Cell-Based Dose Retest to Confirm Inhibitors of Cancer Stem Cells. [Related pubchem assays (depositor defined):AID2717, AID2721]; assay type: functional; details: Homo sapiens
Troponin, cardiac muscle = Troponin, cardiac muscle (Homo sapiens, UniProt P19429+P45379+P63316); assay: Fluorescence-based biochemical high throughput dose response assay for activators of the calcium sensitivity of cardiac Regulated Thin Filaments (RTF). [Related pubchem assays (depositor defined):AID493008, AID493018, AID504382, AID504383]; assay type: protein-complex assay
HEK293 = assay: EBV LMP1 TES2 canonical NF-kB signalling blockers – cell-based, HEK293, luciferase, cherry-pick, dose response (AID 588343); assay type: functional; details: Homo sapiens
Cytochrome P450 2C9 = Cytochrome P450 2C9 (Homo sapiens, UniProt P11712)
Cytochrome P450 2C9, sequence (P11712 whole entry): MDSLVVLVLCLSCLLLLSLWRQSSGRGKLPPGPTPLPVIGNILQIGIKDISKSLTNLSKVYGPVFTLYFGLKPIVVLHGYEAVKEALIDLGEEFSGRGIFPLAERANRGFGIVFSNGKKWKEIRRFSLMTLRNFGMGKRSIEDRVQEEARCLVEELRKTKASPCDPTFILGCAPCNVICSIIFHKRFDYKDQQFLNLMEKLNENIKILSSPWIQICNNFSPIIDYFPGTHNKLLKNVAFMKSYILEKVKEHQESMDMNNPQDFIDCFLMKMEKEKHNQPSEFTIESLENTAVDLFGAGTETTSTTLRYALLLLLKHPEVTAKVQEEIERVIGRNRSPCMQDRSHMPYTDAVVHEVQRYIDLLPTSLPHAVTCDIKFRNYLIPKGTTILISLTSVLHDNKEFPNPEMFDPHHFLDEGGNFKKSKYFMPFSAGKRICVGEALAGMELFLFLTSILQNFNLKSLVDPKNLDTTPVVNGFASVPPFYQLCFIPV

Cytochrome P450 2C19 = Cytochrome P450 2C19 (Homo sapiens, UniProt P33261); assay: Cytochrome panel assay with activity outcomes. Panel member name: p450-cyp2c19 Compounds with AC50 equal or less than 10 uM are considered active; assay type: functional; details: read-out: AC50
Cytochrome P450 3A4 = Cytochrome P450 3A4 (Homo sapiens, UniProt P08684);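 further: CYP3A4 tested as one member of a cytochrome P450 panel screen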
Cytochrome P450 3A4, sequence (P08684 whole entry): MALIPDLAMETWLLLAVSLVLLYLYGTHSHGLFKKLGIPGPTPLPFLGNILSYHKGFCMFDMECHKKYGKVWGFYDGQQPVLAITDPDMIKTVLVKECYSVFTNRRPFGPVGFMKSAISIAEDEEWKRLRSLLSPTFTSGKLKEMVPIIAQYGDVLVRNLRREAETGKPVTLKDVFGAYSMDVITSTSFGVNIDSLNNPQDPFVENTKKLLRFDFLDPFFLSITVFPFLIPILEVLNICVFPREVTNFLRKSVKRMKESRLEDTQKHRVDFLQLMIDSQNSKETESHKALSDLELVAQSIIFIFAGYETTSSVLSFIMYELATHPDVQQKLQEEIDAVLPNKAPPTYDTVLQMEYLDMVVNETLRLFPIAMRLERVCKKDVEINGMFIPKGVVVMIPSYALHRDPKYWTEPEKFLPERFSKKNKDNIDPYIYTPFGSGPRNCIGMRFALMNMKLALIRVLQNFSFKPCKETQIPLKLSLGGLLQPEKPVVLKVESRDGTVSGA

[7] = biological target: Dual specificity tyrosine-phosphorylation-regulated kinase 1A (Rattus norvegicus, UniProt Q63470); assay type: biochemical, Homo sapiens

## CCn1c(=O)cc(SCC(=O)N2CCN(C)CC2)c2ccccc21
[1]
  EC50: > 79.4 µM (not active)
[2]
  EC50: > 79.4 µM (inactive)
[3]
  EC50: > 79.4 µM (not active)
[4]
  IC50: > 80 µM (inactive)

## CC(=O)N1N=C(c2ccc(Br)cc2)CC1c1cn(C)c2ccccc12 (stereo unspecified)
[1]
  EC50: > 79.4 µM (not active)
[2]
  EC50: 18.5 µM (inactive)
[3]
  EC50: 18.3 µM (not active)

## O=C(NCc1ccco1)c1nc(O)c2nnn(Cc3ccccc3Cl)c2n1
[5]
  AC50: 14.4 µM (active)
Vero
  CC50: 18.9 µM (active)
[6]
  AC50: 2.4 µM (active)

## CN(Cc1ccccc1)C(=O)c1[nH]cnc1C(=O)NCc1ccccc1
Troponin, cardiac muscle
  EC50: > 71.6 µM (inactive)

## COCCn1c(C)cc(C(=O)COC(=O)C23CC4CC(CC(O)(C4)C2)C3)c1C
HEK293
  AC50: 7.37 µM (active)

## Cc1ccc(C)c(OCC(=O)OCc2csc(CC(=O)Nc3ccccc3C)n2)c1
Vero
  CC50: > 25 µM (active)

## Cn1c(=O)cc(SCC(=O)Nc2cccnc2)c2ccccc21
[1]
  EC50: > 79.4 µM (not active)
[2]
  EC50: > 79.4 µM (inactive)
[3]
  EC50: > 79.4 µM (not active)

## CCOc1ccc2ccccc2c1CNCCN1CCOCC1
Troponin, cardiac muscle
  EC50: > 71.5 µM (inactive)

## CN(CCCNC(=O)C1CCN(S(=O)(=O)c2cccc3nsnc23)CC1)Cc1ccccc1
Cytochrome P450 2C9
  AC50: inconclusive
Cytochrome P450 2C19
  AC50: 39.8 µM (inconclusive)
Cytochrome P450 3A4
  AC50: 3.16 µM (inconclusive)

## CCO/C(=C/c1sc2ccc(OC)cc2[n+]1CCCS(=O)(=O)[O-])CC
[7]
  AC50: 9.02 µM (active)
